Test results from ChEMBL document CHEMBL5505985 (Eur J Med Chem, 2024).
Active and inactive are the calls of the source. The calls are words filed in the database; no cut-off is given here.

Columns and labels:
[1] = test system: Mus musculus; assay: Antiinflammatory activity against DSS-induced ulcerative colitis BALB/c mouse assessed as amelioration of goblet cell depletion at 0.25 mg/kg, po for 5 days and measured after 12 days; type: functional, organism-based; details: time 12.0 day
[2] = test system: RAW264.7; assay: Antiinflammatory activity in LPS-induced mouse RAW264.7 cells assessed as inhibition of ROS secretion preincubated for 1 hr followed by LPS stimulation and measured after 24 hrs by fluorescence based analysis; type: functional, cell-based; details: dose 2-30 µM, time 25.0 hrs
[3] = test system: RAW264.7; assay: Inhibition of LPS-induced NFkappaB activation in mouse RAW264.7 cells assessed as reduction in NF-kappaB phosphorylation level preincubated for 1 hr followed by LPS stimulation and measured after 30 mins by Westernblot analysis; type: cell-based; details: dose 10-30 µM, time 1.5 hrs
[4] = target: T1, Prostaglandin G/H synthase 1 (Ovis aries, UniProt P05979); assay: Inhibition of sheep COX-1 using arachidonic acid as substrate pretreated for 5 mins followed by substrate addition and measured after 2 mins by fluorescence based analysis
T1 sequence (P05979 whole entry): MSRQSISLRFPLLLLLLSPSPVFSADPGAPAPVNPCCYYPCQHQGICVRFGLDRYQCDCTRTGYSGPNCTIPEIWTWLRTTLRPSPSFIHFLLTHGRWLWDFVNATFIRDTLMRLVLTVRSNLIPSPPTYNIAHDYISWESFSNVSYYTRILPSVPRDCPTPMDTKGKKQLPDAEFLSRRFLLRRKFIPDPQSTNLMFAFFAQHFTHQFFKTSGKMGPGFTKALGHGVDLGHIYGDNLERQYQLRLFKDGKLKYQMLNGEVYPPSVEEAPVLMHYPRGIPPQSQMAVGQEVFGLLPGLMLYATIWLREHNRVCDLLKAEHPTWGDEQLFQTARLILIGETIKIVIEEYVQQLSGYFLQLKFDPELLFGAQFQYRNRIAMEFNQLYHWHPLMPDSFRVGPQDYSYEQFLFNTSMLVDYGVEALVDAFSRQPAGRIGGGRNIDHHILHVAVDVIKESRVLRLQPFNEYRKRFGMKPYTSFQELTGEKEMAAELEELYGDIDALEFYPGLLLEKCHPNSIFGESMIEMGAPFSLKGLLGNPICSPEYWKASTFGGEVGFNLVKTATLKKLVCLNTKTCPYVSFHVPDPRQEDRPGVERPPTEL

[5] = test system: RAW264.7; assay: Antiinflammatory activity in LPS-induced mouse RAW264.7 cells assessed as inhibition of NO secretion preincubated for 1 hr followed by LPS stimulation and measured after 24 hrs by Griess assay; type: functional, cell-based; details: dose 2-30 µM, time 25.0 hrs
[6] = test system: RAW264.7; assay: Inhibition of LPS-induced NFkappaB activation in mouse RAW264.7 cells assessed as inhibition of IkappaBalpha phosphorylation level preincubated for 1 hr followed by LPS stimulation and measured after 30 mins by Westernblot analysis; type: cell-based; details: dose 10-30 µM, time 1.5 hrs
[7] = test system: RAW264.7; assay: Cytotoxicity activity mouse RAW264.7 cells assessed as reduction in cell viability at 10 uM incubated for 48 hrs by MTT assay; type: toxicity, cell-based; details: raw264.7, 48 h
[8] = test system: Mus musculus; assay: Protection against DSS-induced ulcerative colitis BALB/c mouse assessed as recovery of cell matrix development at 0.25 mg/kg, po for 5 days and measured after 12 days by H and E staining based analysis; type: functional, organism-based; details: time 12.0 day
[9] = test system: Mus musculus; assay: Antiinflammatory activity against DSS-induced ulcerative colitis BALB/c mouse assessed as suppression of weight loss at 0.25 mg/kg, po for 5 days and measured on day 10; type: functional, organism-based; details: time 10.0 day
[10] = test system: Mus musculus; assay: Antiinflammatory activity against DSS-induced ulcerative colitis BALB/c mouse assessed as amelioration of atrophied blood sinusoids at 0.25 mg/kg, po for 5 days and measured after 12 days; type: functional, organism-based; details: time 12.0 day
[11] = test system: Mus musculus; assay: Antiinflammatory activity against DSS-induced ulcerative colitis BALB/c mouse assessed as amelioration of leucocyte infiltration at 0.25 mg/kg, po for 5 days and measured after 12 days; type: functional, organism-based; details: time 12.0 day
[12] = test system: RAW264.7; assay: Inhibition of LPS-induced NFkappaB activation in mouse RAW264.7 cells assessed as inhibition of IKKalpha phosphorylation level preincubated for 1 hr followed by LPS stimulation and measured after 30 mins by Westernblot analysis; type: cell-based; details: dose 10-30 µM, time 1.5 hrs
[13] = Selectivity index, ratio of IC50 for ovine COX-1 to IC50 for human COX-2
[14] = test system: RAW264.7; assay: Antiinflammatory activity in LPS-induced mouse RAW264.7 cells assessed as downregulation of IL-1 beta secretion preincubated for 1 hr followed by LPS stimulation and measured after 24 hrs by ELISA method; type: functional, cell-based; details: dose 2-30 µM, time 25.0 hrs
[15] = test system: Mus musculus; assay: Antiinflammatory activity against DSS-induced ulcerative colitis BALB/c mouse assessed as amelioration of inflammatory cell infiltration at 0.25 mg/kg, po for 5 days and measured after 12 days; type: functional, organism-based; details: time 12.0 day
[16] = test system: RAW264.7; assay: Inhibition of MAPK signalling pathway in LPS induced mouse RAW264.7 cells assessed as effect on JNK phosphorylation level at 10 to 30 uM preincubated for 1 hr followed by LPS stimulation and measured after 30 mins by Westernblot analysis; type: cell-based; details: dose 10-30 µM, time 1.5 hrs
[17] = test system: RAW264.7; assay: Inhibition of MAPK signalling pathway in LPS induced mouse RAW264.7 cells assessed as effect on p38 phosphorylation level at 10 to 30 uM preincubated for 1 hr followed by LPS stimulation and measured after 30 mins by Westernblot analysis; type: cell-based; details: dose 10-30 µM, time 1.5 hrs
[18] = target: NACHT, LRR and PYD domains-containing protein 3 (Mus musculus) (UniProt Q8R4B8); assay: Inhibition of NLRP3 inflammasome in LPS-induced mouse RAW264.7 cells assessed as inhibition of ASC expression at 10 to 30 uM primed with LPS for 4.5 hs followed by incubation with compound for 1 hr and later stimulation with ATP for 30 mins by Western blot analysis; type: cell-based; details: dose 10-30 µM, time 1.5 hrs
NACHT, LRR and PYD domains-containing protein 3 (Mus musculus), sequence (Q8R4B8 whole entry, the tested form may be a part): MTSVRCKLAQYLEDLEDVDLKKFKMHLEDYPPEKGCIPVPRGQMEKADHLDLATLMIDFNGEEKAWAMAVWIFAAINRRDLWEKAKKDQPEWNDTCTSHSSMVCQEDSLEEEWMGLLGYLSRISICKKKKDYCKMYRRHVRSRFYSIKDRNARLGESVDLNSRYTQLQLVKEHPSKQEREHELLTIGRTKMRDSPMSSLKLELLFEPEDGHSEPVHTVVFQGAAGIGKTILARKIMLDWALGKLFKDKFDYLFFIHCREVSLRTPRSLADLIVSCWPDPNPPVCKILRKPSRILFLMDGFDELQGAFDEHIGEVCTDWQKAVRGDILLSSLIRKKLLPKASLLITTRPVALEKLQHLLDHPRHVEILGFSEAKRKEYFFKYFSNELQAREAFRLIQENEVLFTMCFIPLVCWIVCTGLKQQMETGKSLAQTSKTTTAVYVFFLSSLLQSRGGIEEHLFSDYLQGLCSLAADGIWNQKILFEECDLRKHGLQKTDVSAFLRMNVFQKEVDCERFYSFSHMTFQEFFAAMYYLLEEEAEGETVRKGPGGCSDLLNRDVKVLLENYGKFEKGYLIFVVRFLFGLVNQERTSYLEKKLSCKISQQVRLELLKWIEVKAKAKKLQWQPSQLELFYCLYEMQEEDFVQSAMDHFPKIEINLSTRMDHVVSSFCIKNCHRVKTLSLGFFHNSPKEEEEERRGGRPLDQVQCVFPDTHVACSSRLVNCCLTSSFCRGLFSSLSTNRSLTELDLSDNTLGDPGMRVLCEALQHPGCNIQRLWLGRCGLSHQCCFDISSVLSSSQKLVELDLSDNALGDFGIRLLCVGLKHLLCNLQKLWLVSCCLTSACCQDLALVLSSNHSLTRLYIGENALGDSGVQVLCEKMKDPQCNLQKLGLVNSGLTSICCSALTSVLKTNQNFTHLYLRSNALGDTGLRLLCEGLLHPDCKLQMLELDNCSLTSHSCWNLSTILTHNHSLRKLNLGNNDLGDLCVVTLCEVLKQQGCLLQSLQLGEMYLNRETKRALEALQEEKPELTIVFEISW

[19] = test system: Mus musculus; assay: Protection against DSS-induced ulcerative colitis BALB/c mouse assessed as recovery of blood sinusoids at 0.25 mg/kg, po for 5 days and measured after 12 days by H and E staining based analysis; type: functional, organism-based; details: time 12.0 day
[20] = test system: Mus musculus; assay: Antiinflammatory activity against DSS-induced ulcerative colitis BALB/c mouse assessed as reduction in DAI score at 0.25 mg/kg, po for 5 days and measured after 12 days; type: functional, organism-based; details: time 12.0 day
[21] = test system: RAW264.7; assay: Inhibition of MAPK signalling pathway in LPS induced mouse RAW264.7 cells assessed as effect on ERK phosphorylation level at 10 to 30 uM preincubated for 1 hr followed by LPS stimulation and measured after 30 mins by Westernblot analysis; type: cell-based; details: dose 10-30 µM, time 1.5 hrs

COc1ccccc1C1=Nn2c(Cc3ccccc3Nc3c(Cl)cccc3Cl)nnc2SC1
Activity [1]: Active | Activity [2]: Dose-Dependent Effect | inhibition [3]: Dose-Dependent Effect | IC50 [4]: 26.3 µM | Activity [5]: Dose-Dependent Effect | inhibition [6]: Dose-Dependent Effect | Activity [7]: Non-Toxic | Activity [8]: Active | Activity [9]: Active | Activity [10]: Active | Activity [11]: Active | inhibition [12]: Dose-Dependent Effect | Ratio IC50 [13]: 17.2 | Activity [14]: Dose-Dependent Effect | Activity [15]: Active | inhibition [16]: inactive | inhibition [17]: inactive | inhibition [18]: Active | Activity [19]: Active | Activity [20]: Active | inhibition [21]: inactive
